From the supplement of paper PMC10307832

Experiments:
Assay in all cases: relative viability (nuclei count vs DMSO), 5 days (fraction); higher = more cells survive
[1] = compound: CC1=CC(=CC=C1)NC2=NC(=CS2)C3=CC=NC=C3 + Cc1nc(Nc2ncc(C(=O)Nc3c(C)cccc3Cl)s2)cc(N2CCN(CCO)CC2)n1 [Dasatinib] (partner 0.075 µM)
Summary of the method: (§1)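 Values are medians from duplicate plates. Each reflects relative viability, defined as the nuclei count of treated wells over that of vehicle wells. Lung cancer cell lines in 1536-well plates were pin-tool dosed one day after seeding with one drug alone or with a fixed anchor-drug dose plus five library-drug doses (not always all listed) in √10 steps, then fixed, stained and imaged at 4× after 5 days.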

Masitinib + Foretinib = compound: Cc1ccc(NC(=O)c2ccc(CN3CCN(C)CC3)cc2)cc1Nc1nc(-c2cccnc2)cs1 [Masitinib] + COc1cc2c(Oc3ccc(NC(=O)C4(C(=O)Nc5ccc(F)cc5)CC4)cc3F)ccnc2cc1OCCCN1CCOCC1 [Foretinib] (partner 0.25 µM)
Summary of the method: as §1

Masitinib + Trametinib = compound: Cc1ccc(NC(=O)c2ccc(CN3CCN(C)CC3)cc2)cc1Nc1nc(-c2cccnc2)cs1 [Masitinib] + CC(=O)Nc1cccc(-n2c(=O)n(C3CC3)c(=O)c3c(Nc4ccc(I)cc4F)n(C)c(=O)c(C)c32)c1 [Trametinib] (partner 0.02 µM)
Summary of the method: as §1

[2] = compound: CC1=CC(=CC=C1)NC2=NC(=CS2)C3=CC=NC=C3 + CC(C)C[C@H](NC(=O)[C@H](Cc1ccccc1)NC(=O)c1cnccn1)B(O)O [Bortezomib] (partner 0.002 µM)
Summary of the method: as §1

Cell Line	relative viability ([1]; first compound 0.08 µM)	relative viability ([1]; first compound 0.253 µM)	relative viability ([1]; first compound 0.8 µM)	relative viability ([1]; first compound 2.53 µM)	relative viability ([1]; first compound 8 µM)	relative viability (Masitinib + Foretinib; first compound 0.03162 µM)	relative viability (Masitinib + Foretinib; first compound 0.1 µM)	relative viability (Masitinib + Foretinib; first compound 0.3162 µM)	relative viability (Masitinib + Foretinib; first compound 1 µM)	relative viability (Masitinib + Trametinib; first compound 0.01 µM)	relative viability (Masitinib + Trametinib; first compound 0.03162 µM)	relative viability (Masitinib + Trametinib; first compound 0.1 µM)	relative viability (Masitinib + Trametinib; first compound 0.3162 µM)	relative viability (Masitinib + Trametinib; first compound 1 µM)	relative viability ([2]; first compound 0.08 µM)	relative viability ([2]; first compound 0.253 µM)	relative viability ([2]; first compound 0.8 µM)	relative viability ([2]; first compound 2.53 µM)	relative viability ([2]; first compound 8 µM)	relative viability (Masitinib + Foretinib; first compound 0.01 µM)
LCLC-97TM1	0.898	0.824	0.963	0.856	1.01	0.966	0.941	1.08	0.874	0.184	0.19	0.19	0.231	0.186	0.715	0.478	0.476	0.365	0.463	
NCI-H647	0.17	0.172	0.195	0.148	0.196	1.19	1.46	1.04	1.19	0.45	0.381	0.435	0.364	0.411	0.826	0.92	0.965	0.836	0.621	1.34
NCI-H838	0.233	0.248	0.244	0.293	0.267	0.837	1.18	0.813	1.05	0.375	0.425	0.458	0.451	0.488	0.658	0.742	0.934	0.861	0.651	0.926
H3255	0.397	0.347	0.489	0.341	0.528	0.922	0.648	0.934	0.748	0.471	0.619	0.499	0.565	0.582	0.664	0.624	0.886	0.586	0.604	0.745
LXF-289	0.194	0.214	0.224	0.183	0.159	0.965	0.951	1.01	0.988	0.638	0.707	0.674	0.747	0.699	0.952	0.959	0.988	0.978	0.823	0.792
HCC-827	0.422	0.352	0.437	0.455	0.464	1.05	1.06	1	1.06	0.508	0.532	0.539	0.603	0.547	1.05	0.903	0.946	0.974	0.882	1.03
HCC-366	0.543	0.567	0.625	0.48	0.365	0.933		0.961	0.998		0.275	0.407	0.333	0.34	0.875	1.04	0.998	1.06	0.985	
BEN	0.304	0.273	0.364	0.222	0.327		0.745	0.705	0.461	1.15	0.964	1.13	1.11	1.09	0.816	0.618	0.546	0.697	0.794	0.702
NCI-H2347	0.274	0.301		0.388	0.389	0.847	1.09	0.787	1.15	0.26	0.262	0.291	0.293	0.288	0.748	0.74	0.847	0.804	0.57	1.02
201T	0.59	0.515	0.497	0.508	0.382	1.21	1.02		1.11	0.599	0.712	0.628	0.745	0.719	1.05	1.06	1.08	0.888	0.919	0.89
NCI-H520	0.225	0.239	0.25	0.209	0.243	0.937	0.987	0.695	0.762	0.752	0.634	0.873	0.76	0.598	0.586	0.505	0.56	0.786	0.235	0.899
NCI-H727		0.425	0.517	0.383	0.398	1.02	1	0.891	0.85	0.333	0.375	0.417	0.366	0.334	0.547	0.774	0.834	0.549	0.446	0.673
HCC-15	0.467	0.469	0.589	0.499	0.53	0.949	1.02	1.05	0.983	0.364	0.373	0.389	0.234	0.354	0.963	1.03	0.973	1.02	0.753	0.989
NCI-H1650	0.325	0.28	0.366	0.228	0.221	0.914	1.09	0.902	1.17	0.48	0.54	0.479	0.493	0.527	0.194	0.193	0.213	0.213	0.191	0.984
LCLC-103H	0.517	0.44	0.41	0.386	0.385	0.684	0.773	0.703	0.735		0.624	0.693	0.713	0.669	0.995	1.12	1.05	1.1	0.635	0.743
NCI-H460	0.44	0.306	0.554	0.381	0.343	1.08	1.06	0.864	0.977	0.13	0.121	0.139	0.13	0.13	1.03	1.13	0.945	0.902	0.843	1.02
EPLC-272H	0.396	0.338	0.273	0.288	0.333	0.64	0.669	0.875	0.645	0.28	0.35	0.376	0.268	0.237	1.03		0.73		0.352	0.63
